This is an account of results in patent publication EP4775582A1, “MACROCYCLIC COMPOUND AND ANTIBODY-DRUG CONJUGATE THEREOF” (Genfleet Therapeutics (Shanghai) Inc., priority 2023, dated 2025).

Structures are written as SMILES. Converted amounts (≈) assume the structure as drawn. Like-named read-outs stand apart in the source and are kept apart here.

Series [1] addresses KRAS WT-cRAF (Homo sapiens, UniProt P01116+P62937). The series is described as follows: Assay for binding of KRAS to cRAF (HTRF, with Cyclophilin A), KRAS WT. (Time-resolved FRET reads energy transfer from a long-lived donor to a nearby acceptor.)
Procedure: (§3) The plate was centrifuged at 1000 rpm for 1 min and then incubated in the thermostatic incubator at 20 °C for 30 min. […] The plate was centrifuged at 1000 rpm for 1 min and then incubated in the thermostatic incubator at 20 °C for 60 min. […] The working solution was added to the aforementioned assay plate at 5 µL/well. The plate was centrifuged at 1000 rpm for 1 min and then incubated in the thermostatic incubator at 20 °C for 60 min.
Series [2] deals with KRAS G12V-cRAF (Homo sapiens, UniProt P01116+P62937, G12V). Put plainly: Assay for binding of KRAS to cRAF (HTRF, with Cyclophilin A), KRAS G12V.
KRAS G12V-cRAF, sequence (P01116 1-188 isoform P01116-2 G12V): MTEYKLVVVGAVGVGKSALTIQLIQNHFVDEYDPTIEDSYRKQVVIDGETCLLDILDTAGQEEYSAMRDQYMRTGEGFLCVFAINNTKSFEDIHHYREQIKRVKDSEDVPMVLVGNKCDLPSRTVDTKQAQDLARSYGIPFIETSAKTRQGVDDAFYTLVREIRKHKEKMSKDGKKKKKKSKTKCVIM
KRAS G12V-cRAF, sequence (P62937 whole entry): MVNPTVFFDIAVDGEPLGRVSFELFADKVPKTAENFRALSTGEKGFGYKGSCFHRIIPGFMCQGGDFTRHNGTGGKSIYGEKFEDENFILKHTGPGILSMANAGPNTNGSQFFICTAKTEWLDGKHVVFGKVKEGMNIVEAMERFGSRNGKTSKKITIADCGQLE
Procedure: as §3
Series [3] concerns AsPC-1 p-ERK. The series is described as follows: Cell p-ERK assay (HTRF), AsPC-1 cells. It is filed as cell-based, human. As to conditions: AsPC-1 cells (KRAS G12D), 3 h incubation, read-out: AsPC-1 p-ERK IC50. The essentials: (§1)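 Phospho-ERK (T202/Y204) was measured by HTRF in lysates after 3 h compound treatment at 37 °C. Cells had been plated the previous day at 20000 per well for NCI-H441 and 10000 per well for AsPC-1. Four-parameter dose-response fitting of % inhibition gave IC50 values.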

Series [4] relates to NCI-H441 cells. Put plainly: 3D cell proliferation assay (CellTiter Glo-3D), NCI-H441. Type of series: cell-based, human. As to conditions: NCI-H441 cells (KRAS G12V), 2% FBS, 5 days, read-out: H441 AP IC50. The essentials: (§2)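 IC50 values come from four-parameter fits of inhibition rate against log compound concentration, using CellTiter-Glo luminescence read after 5 days' exposure. AsPC-1 and NCI-H441 were plated at 800 cells per well in low-serum (2% FBS) medium. Compound was dosed the day after seeding, with incubation at 37 °C, 5% CO2.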

Series [5] relates to AsPC-1 cells. Put plainly: 3D cell proliferation assay (CellTiter Glo-3D), AsPC-1. Type of series: cell-based, human. The conditions noted are these: AsPC-1 cells (KRAS G12D), 3D, 2% FBS, 5 days, read-out: AsPC-1 AP IC50. The essentials: as §2
(Cellular ATP, detected with luciferase, serves as a proxy for viable cell number.)

Series [6] can be described thus: Solubility experiment (HPLC, external standard). Type of series: physicochemical. As to conditions: pH 7.4 medium, 37 °C, 24 h; for solubility at 24 h: pH 7.4, pH 7.4 medium. The method, boiled down: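 Solid compound (about 1 mg per 1 mL medium) was shaken at 37 °C for 24 h in pH 1.2, 4.5 or 7.4 media, then centrifuged and the supernatant diluted with acetonitrile/water 50/50. Concentration in μg/mL was found by HPLC against an external standard prepared from a DMSO stock.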

Series [7] deals with H441 p-ERK. The series is described as follows: Cell p-ERK assay (HTRF), NCI-H441 cells. Type of series: cell-based, human. The conditions noted are these: NCI-H441 cells (KRAS G12V), 3 h incubation. The essentials: as §1
Setting [8] is: KRAS WT-cRAF binding assay(nM), GPPNP-KRAS WT, IC50 values.
[9] abbreviates: KRAS G12V-cRAF binding assay(nM), GPPNP-KRAS G12V, IC50 values.

KRAS WT-cRAF, sequence (P01116 1-188 isoform P01116-2): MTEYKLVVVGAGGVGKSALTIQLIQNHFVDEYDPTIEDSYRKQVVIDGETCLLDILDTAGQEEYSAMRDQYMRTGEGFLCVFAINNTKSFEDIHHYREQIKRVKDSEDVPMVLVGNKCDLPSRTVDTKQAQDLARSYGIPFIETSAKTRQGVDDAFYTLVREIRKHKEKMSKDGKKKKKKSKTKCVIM
KRAS WT-cRAF, sequence (P62937 whole entry): as the sequence (P62937 whole entry) above

One may read the IC50 as the point on the concentration scale where inhibition reaches its midpoint. For orientation: solubility means the concentration that dissolves in the medium under given conditions. Higher therefore signals a readily soluble substance. As to `CCn1c(-c2cc(C#CCN3CCN(C(=O)CN)CC3)cnc2C(C)OC)c2c3cc(ccc31)-c1csc(n1)CC(NC(=O)C1C3COCC31)C(=O)N1CCCC(N1)C(=O)OCC(C)(C)C2` (atropisomer, axis not shown; (Ra)) [Compound Z47, (1R,5S,6r)-N-((6^3S,4S,Z)-1^1-ethyl-(Ra)-1^2-(5-(3-(4-glycylpiperazin-1-yl)prop-1-yn-1-yl)-2-((S)-1-methoxyethyl)pyridin-3-yl)-10,10-dimethyl-5,7-dioxo-6^1,6^2,6^3,6^4,6^5,6^6-hexahydro-1^1H-8-oxa-2(4,2)-thiazola-1(5,3)-indola-6(1,3)-pyridazinacycloundecaphane-4-yl)-3-oxabicyclo[3.1.0]hexane-6-carboxamide], the IC50 turned out to be 34.4 nM in series [1] (setting [8]); 19.3 nM in series [2] (setting [9]); 2.33 nM in series [3] (Homo sapiens, ASPC1); 0.75 nM in series [4] (Homo sapiens, 120 h); 1.2 nM in series [5] (Homo sapiens, ASPC1, 120 h); 0.58 nM in series [7] (Homo sapiens). In series [6], this compound showed a solubility at 24 h of 109 µg/mL (≈ 118 µM).
Turning to `CCn1c(-c2cc(C#CCN3CCN(C(=O)CO)CC3)cnc2C(C)OC)c2c3cc(ccc31)-c1coc(n1)CC(NC(=O)C1C3COCC31)C(=O)N1CCCC(N1)C(=O)OCC(C)(C)C2` (atropisomer, axis not shown; (Ra)) [Compound Z44, (1R,5S,6r)-N-((6^3S,4S,Z)-(Ra)-1^2-(5-(3-(4-(2-hydroxyacetyl)piperazin-1-yl)prop-1-yn-1-yl)-2-((S)-1-methoxyethyl)pyridin-3-yl)-1^1-ethyl-10,10-dimethyl-5,7-dioxo-6^1,6^2,6^3,6^4,6^5,6^6-hexahydro-1^1H-8-oxa-2(4,2)-oxazola-1(5,3)-indola-6(1,3)-pyridazinacycloundecaphane-4-yl)-3-oxabicyclo[3.1.0]hexane-6-carboxamide], the IC50 in series [1] (setting [8]) is 25.2 nM; in series [2] (setting [9]), 11.8 nM; in series [3] (Homo sapiens, ASPC1) it was 1.73 nM; in series [4] (Homo sapiens, 120 h) it was 0.38 nM; in series [5] (Homo sapiens, ASPC1, 120 h), 1.21 nM; in series [7] (Homo sapiens), 0.42 nM. Besides, the concentration in solution in series [6] (solubility at 24 h) was 55.8 µg/mL (≈ 61.6 µM).
On to `CCn1c(-c2cc(C#CC(CO)N3CCS(=O)(=O)CC3)cnc2C(C)OC)c2c3cc(ccc31)-c1csc(n1)CC(NC(=O)C1C3COCC31)C(=O)N1CCCC(N1)C(=O)OCC(C)(C)C2` (atropisomer, axis not shown; (Ra)) [Compound Z40, (1R,5S,6r)-N-((6^3S,4S,Z)-(Ra)-1^2-(5-(3-(1,1-dioxidothiomorpholino)-4-hydroxybut-1-yn-1-yl)-(Ra)-2-((S)-1-methoxyethyl)-pyridin-3-yl)-1^1-ethyl-10,10-dimethyl-5,7-dioxo-6^1,6^2,6^3,6^4,6^5,6^6-hexahydro-1^1H-8-oxa-2(4,2)-thiazola-1(5,3)-indola-6(1,3)-pyridazinacycloundecaphane-4-yl)-3-oxabicyclo[3.1.0]hexane-6-carboxamide], for which the IC50 in series [1] (setting [8]) came to 14.3 nM; in series [2] (setting [9]) it was 7.8 nM; in series [3] (Homo sapiens, ASPC1), 0.38 nM; in series [4] (Homo sapiens, 120 h), 0.4 nM; in series [5] (Homo sapiens, ASPC1, 120 h), 0.43 nM; in series [7] (Homo sapiens), 0.45 nM. Further, in series [6], the solubility at 24 h is 5.1 µg/mL (≈ 5.41 µM).
As a reminder, the Solubility is how much of the substance goes into solution per volume. Higher therefore signals much dissolved substance. As to `CCn1c(-c2cc(C#CCN3CCN(C(=O)CO)CC3)cnc2[C@H](C)OC)c2c3cc(ccc31)-c1csc(n1)C[C@H](NC(=O)[C@H]1[C@@H]3COC[C@@H]31)C(=O)N1CCC[C@H](N1)C(=O)OCC(C)(C)C2` (atropisomer, axis not shown; (Ra)) [Compound Z34, (1R,5S,6r)-N-((6^3S,4S,Z)-1^1-ethyl-1^2-(5-(3-(4-(2-hydroxyacetyl)piperazin-1-yl)prop-1-yn-1-yl)-(Ra)-2-((S)-1-methoxyethyl)pyridin-3-yl)-10,10-dimethyl-5,7-dioxo-6^1,6^2,6^3,6^4,6^5,6^6-hexahydro-1^1H-8-oxa-2(4,2)-thiazola-1(5,3)-indola-6(1,3)-pyridazinacycloundecaphane-4-yl)-3-oxabicyclo[3.1.0]hexane-6-carboxamide], the concentration for half-maximal inhibition (IC50) worked out at 25.3 nM in series [1] (read-out: KRAS WT-cRAF binding assay, GPPNP-KRAS WT, IC50 values); 17.1 nM in series [2] (read-out: KRAS G12V-cRAF binding assay, GPPNP-KRAS G12V, IC50 values); 0.28 nM in series [3]; 0.47 nM in series [4]; 0.77 nM in series [5]; 0.27 nM in series [7]. Also, the “Solubility at pH 7.4 (µg/mL)” value in series [6] is 16.22 µg/mL.
With `CCn1c(-c2cc(C#CCN3CCN(C(=O)CO)CC3)c[n+]([O-])c2C(C)OC)c2c3cc(ccc31)-c1csc(n1)CC(NC(=O)C1C(C)C1C)C(=O)N1CCCC(N1)C(=O)OCC(C)(C)C2` (atropisomer, axis not shown; (Ra)) [Compound Z48, (Ra)-3-((6^3S,4S,Z)-4-((1r,2R,3S)-2,3-dimethylcyclopropane-1-carboxamido)-1^1-ethyl-10,10-dimethyl-5,7-dioxo-6^1,6^2,6^3,6^4,6^5,6^6-hexahydro-1^1H-8-oxa-2(4,2)-thiazola-1(5,3)-indola-6(1,3)-pyridazinacycloundecaphane-1^2-yl)-5-(3-(4-(2-hydroxyacetyl)piperazin-1-yl)prop-1-yn-1-yl)-2-((S)-1-methoxyethyl)pyridine 1-oxide], the IC50 turned out to be 31.3 nM in series [1] (setting [8]); 9.05 nM in series [2] (setting [9]); 4.7 nM in series [3] (Homo sapiens, ASPC1); 1.99 nM in series [4] (Homo sapiens, 120 h); 5.06 nM in series [5] (Homo sapiens, ASPC1, 120 h); 1.66 nM in series [7] (Homo sapiens). The amount in solution in series [6] (solubility at 24 h) came to 71.2 µg/mL (≈ 77.1 µM).
With `CCn1c(-c2cc(C#CCN3CCN(C(=O)CO)CC3)cnc2C(C)OC)c2c3cc(ccc31)-c1csc(n1)CC(NC(=O)C1C(C)C1C)C(=O)N1CCCC(N1)C(=O)OCC(C)(C)C2` (atropisomer, axis not shown; (Ra)) [Compound Z6, (1r,2R,3S)-N-((6^3S,4S,Z)-1^1-ethyl-(Ra)-1^2-(5-(3-(4-(2-hydroxyacetyl)piperazin-1-yl)prop-1-yn-1-yl)-2-((S)-1-methoxyethyl)pyridin-3-yl)-10,10-dimethyl-5,7-dioxo-6^1,6^2,6^3,6^4,6^5,6^6-hexahydro-1^1H-8-oxa-2(4,2)-thiazola-1(5,3)-indola-6(1,3)-pyridazinacycloundecaphane-4-yl)-2,3-dimethylcyclopropane-1-carboxamide], the IC50 turned out to be 19.2 nM in series [1] (setting [8]); 10.7 nM in series [2] (setting [9]); 0.15 nM in series [3] (Homo sapiens, ASPC1); 0.28 nM in series [4] (Homo sapiens, 120 h); 0.31 nM in series [5] (Homo sapiens, ASPC1, 120 h); 0.21 nM in series [7] (Homo sapiens). Further, the solubility at 24 h in series [6] was determined as 7.8 µg/mL (≈ 8.6 µM).
